Assay results from publication PMC10222839, “Development of Novel Small-Molecule Activators of Pyruvate Kinase Muscle Isozyme 2, PKM2, to Reduce Photoreceptor Apoptosis” (Pharmaceuticals, 2023).
Values after ≈ are worked out from the molar mass of the structure shown.

Assays:
human recombinant PKM2 = target: T1, human recombinant PKM2 (Homo sapiens, UniProt P14618); assay: Pyruvate kinase enzyme-coupled (LDH/NADH) assay with recombinant PKM2; type: biochemical
T1 construct: purchased Sigma SAE0021
T1 sequence (P14618 whole entry): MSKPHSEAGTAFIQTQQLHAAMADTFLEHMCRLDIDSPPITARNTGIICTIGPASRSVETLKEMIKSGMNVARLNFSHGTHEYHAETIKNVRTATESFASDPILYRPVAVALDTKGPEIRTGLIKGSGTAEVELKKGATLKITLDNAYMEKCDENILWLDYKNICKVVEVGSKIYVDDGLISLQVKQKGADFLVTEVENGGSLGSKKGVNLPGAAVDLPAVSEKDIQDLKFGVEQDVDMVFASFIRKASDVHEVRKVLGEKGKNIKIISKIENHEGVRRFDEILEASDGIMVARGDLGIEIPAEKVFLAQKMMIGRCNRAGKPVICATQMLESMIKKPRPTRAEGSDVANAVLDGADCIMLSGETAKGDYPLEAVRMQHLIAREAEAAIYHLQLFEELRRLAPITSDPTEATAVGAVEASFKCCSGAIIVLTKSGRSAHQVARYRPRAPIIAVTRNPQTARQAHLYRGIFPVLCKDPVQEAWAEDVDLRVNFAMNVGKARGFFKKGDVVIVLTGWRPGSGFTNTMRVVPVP
Procedure: Recombinant Enzyme. An enzyme-coupled assay that measures the depletion of NADH via absorbance at 340 nm and uses lactate dehydrogenase (LDH) was employed to determine the activity of pyruvate kinase (PK). To determine the AC50 (concentration of activator necessary to achieve half-maximal activation) of the different small molecules with PKM2, assays were conducted in a 96-well format using 200 μL/well assay volume with 10 nM human recombinant PKM2 (Sigma, St. Louis, MO, USA, Cat No. SAE0021) or PKM1 (Sigma, […], Cat No. SRP0415), differing concentrations of activator, 0.5 mM PEP, 1 mM ADP, 0.2 mM NADH, and 8 U of LDH in a buffer of 50 mM Tris-HCl (pH 7.4), 100 mM KCl, and 5 mM MgCl2 as previously described. A SPECTROstar Omega plate reader (BMG LABTECH Inc., Cary, NC, USA) monitored absorbance at 340 nm. The MARS software suite was utilized to determine initial velocities. Data were normalized to DMSO (dimethyl sulfoxide)-treated enzyme activity, as previously described.

[1] = target: T2, pyruvate kinase (PK) activity in 661W cells (Mus musculus, UniProt P52480); assay: PK activity in 661W cell lysates after 2 h incubation with activator; type: cell-based
T2 construct: endogenous in cells; host or cells: 661W photoreceptor-like cells
T2 sequence (P52480 whole entry): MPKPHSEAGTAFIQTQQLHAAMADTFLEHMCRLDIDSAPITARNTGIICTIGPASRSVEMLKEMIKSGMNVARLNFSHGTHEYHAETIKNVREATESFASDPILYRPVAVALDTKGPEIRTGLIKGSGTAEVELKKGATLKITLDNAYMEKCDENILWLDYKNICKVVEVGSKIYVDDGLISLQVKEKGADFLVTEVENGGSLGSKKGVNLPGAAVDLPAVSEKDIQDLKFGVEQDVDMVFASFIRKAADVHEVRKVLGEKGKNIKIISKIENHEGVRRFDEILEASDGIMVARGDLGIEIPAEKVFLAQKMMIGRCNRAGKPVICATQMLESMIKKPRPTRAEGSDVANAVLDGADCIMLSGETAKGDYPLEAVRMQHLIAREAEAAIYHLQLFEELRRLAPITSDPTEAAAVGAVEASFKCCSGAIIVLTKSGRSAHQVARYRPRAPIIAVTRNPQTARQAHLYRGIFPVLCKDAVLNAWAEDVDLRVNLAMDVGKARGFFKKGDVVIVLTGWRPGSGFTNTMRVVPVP
Procedure: The potency and efficacy of each compound, 1 through 5, was assessed with recombinant human PKM2 using an enzyme-coupled assay that uses lactate dehydrogenase and measures the reduction in NADH via absorbance at 340 nm. […] To assess the ability of this pyridazinoindolone series of compounds to cross cellular membranes and increase PK activity, we utilized 661W cells, which are immortalized photoreceptor-like cells that express cone markers.
Cell culture. Next, 661W cells were incubated with either DMSO or different concentrations of small-molecule PKM2 activator for 2 h, lysed and homogenized in RIPA Lysis and Extraction Buffer (Thermo Fisher, Waltham, MA, USA, Cat No. 89900) with protease inhibitors (Complete-Mini, Roche Diagnostics, Indianapolis, IN, USA), and centrifuged at 10,000 rpm for 10 min to remove cellular debris. The supernatant (4–8 μL) was then used to assess the pyruvate kinase activity as described above. The total protein content was determined using the Pierce BCA protein assay kit (Thermo Fisher, Waltham, MA, USA, Cat No. 23225) with the Pierce™ Bovine Serum Albumin Standard Pre-Diluted Set (Thermo Fisher, Waltham, MA, USA, Cat No. 23208) and used to normalize activity as described previously.

[2] = Aqueous solubility (Eurofins Panlabs, HPLC-UV/Vis); type: physicochemical; conditions: aqueous buffer, kinetic from dmso stock; PBS, pH 7.4, 24 h, room temperature (Table 1)
Procedure: In brief, each compound was tested at a concentration of 200 μM in PBS, pH 7.4, and room temperature. […] The area of the principal peak in a calibration standard for each compound (200 μM) in organic solvent (60/40 v/v% methanol: water) was compared to the area of the corresponding peak in the PBS sample [42]. Compounds 16–21 underwent solubility testing at Analiza (Cleveland, OH, USA), a contract research organization. Five hundred microliters of PBS, pH 7.4 was added to each amount of compound provided. The samples were vortexed briefly and then placed on a rotary shaker at 200 RPM for 24 h at ambient temperature. Thereafter, the samples were vacuum filtered through a 0.45-micron membrane, and the filtrates were injected into a nitrogen detector for quantification. The nitrogen detector was calibrated using standards, and the filtrates were quantitated based on the calibration curve.

[3] = test system: caspase 8 activation in 661W cells; assay: Caspase 8 activity assay in 661W cells (Caspase-Glo 8); type: cell-based
Procedure: (§1) To be confident the pyridazinoindolone core could be utilized in future medicinal chemistry efforts, its photoreceptor neuroprotective effect was assessed. […] Fas signaling has a critical role in caspase activation and photoreceptor apoptosis after experimental retinal detachment. 661W cells die via caspase-mediated mechanisms, and the Fas-ligand (FasL) treatment of these cells leads to the activation of caspases and subsequent death, analogous to the in vivo experimental retinal detachment model. Furthermore, similar to photoreceptors, 661W cells express PKM2 (Figure 4a), and these cells have been used to garner information on the role of metabolism in photoreceptor degeneration. As such, this is a suitable in vitro model of photoreceptor stress that can be utilized to assess the consequences of reprogramming metabolism by pharmacologically activating PKM2 [9]. 661W cells were treated with FasL and either compound 2 or vehicle (DMSO).
(§2) Caspase 8 and caspase 3/7 activity was measured using luminescent assay kits (Caspase-Glo 8 and 3/7 Assay Systems, Promega, Madison, WI, USA, Cat Nos. G8200 and G8090, respectively). […] As previously published, caspase activity was measured 8 h after treatment by incubating cells with substrate for 1 h as per the manufacturer’s instructions. A plate reader luminometer (BMG Labtech, Inc., Cary, NC, USA) assessed luminescence.

[4] = test system: caspase 3 and 7 activation in 661W cells; assay: Caspase 3/7 activity assay in 661W cells (Caspase-Glo 3/7); type: cell-based
Procedure: as §1, §2

661W cells = assay: Cell viability of 661W cells (RealTime-Glo MT); type: cell-based; conditions: for cell viability: in presence of FasL, 48 h, versus vehicle
Procedure: as §1
A luminescent assay kit (RealTime-Glo MT Cell Viability Assay, Promega, Madison, WI, USA, Cat No. G9711) was utilized to assess cell viability. As above, 661W cells were seeded in 96-well plates (Nunc, Rochester, NY, USA) at 2500 cells/well 1 day before treatment. The 661w cells were also pre-treated with compound 2 or DMSO for 2 h before adding 500 ng/mL FasL and 250 ng/mL HA. Viability was measured 48 h after the addition of these latter reagents. As with the caspase assays, luminescence was monitored via a plate reader luminometer (BMG Labtech, Inc., Cary, NC, USA).

[5] = no FasL, concentration near AC50 or more than 10-fold greater

With `Cn1c2cc([S+](C)[O-])ccc2c2cnn(Cc3cccc(N)c3)c(=O)c21` (stereo not drawn) [Compound 2] the AC50 (human recombinant PKM2; recombinant human PKM2, n = 3, best-fit value ± std. error) was 0.05 ± 0.012 µM, the Emax (human recombinant PKM2; recombinant human PKM2, n = 3, normalized to DMSO-treated enzyme, read-out: Recombinant PKM2 Max Activation) was 292 ± 20% and the AC50 ([1]; n = 3) was 0.12 ± 0.045 µM. For the same compound, the Emax ([1]; n = 3, read-out: 661W Cells Max Activation) was 355 ± 26%, the solubility at 24 h [2] was 99.8 µM (≈ 36.6 µg/mL) and the “caspase 8 activation” value ([3]; in presence of 500 ng/mL FasL, all concentrations tested, 8 h, versus DMSO) was “significantly decreased”. For the same compound, the “caspase 8 activity, compound alone” value [3, 5] was “no significant effect”, the “caspase 3 and 7 activation” value ([4]; in presence of 500 ng/mL FasL, highest concentration tested, 8 h, versus DMSO) was “significantly decreased” and the “caspase 3 and 7 activity, compound alone” value [4, 5] was “no significant effect”. The cell viability (661W cells; 200 nM) was “significantly improved”, the cell viability (661W cells; 2 μM) was “trended towards improved cell viability” and the “cell viability, compound alone” value (661W cells; [5]) was “no significant effect”.
